According to patent publication US8748457B2, “2-amino-2- [8-(dimethyl carbamoyl)- 8-aza- bicyclo [3.2.1] oct-3-yl]-exo- ethanoyl derivatives as potent DPP-IV inhibitors” (Lupin Limited, priority 2009, dated 2014):
Structures can show the parent of a compound that is named as a salt. Where two headings read alike, the source gives them in different places.

Key:
human recombinant DPP-IV = target: T1, human recombinant DPP-IV (Homo sapiens, UniProt P27487); assay: Inhibition of human recombinant DPP-IV (Gly-Pro-AMC fluorometric assay); format: biochemical
T1 construct: purchased R&D Systems, USA
Protocol: Inhibition of Human Recombinant DPP-IV
The proteolytic activity of human recombinant DPP-IV was determined by following the hydrolysis of Gly-Pro-7-amino-4-methylcoumarin (Gly-Pro-AMC) and the fluorometric quantitation of the liberated AMC. Assays were routinely carried out in 96-well flat-bottom black microwell plates. The reaction mixture (100 μl) contained 10 ng of human recombinant DPP-IV enzyme (produced in-house or procured from R&D Systems, USA) in the assay buffer (25 mM Tris-HCl, pH 7.4, 140 mM NaCl, 10 mM KCl and 0.1 mg/ml BSA) and 50 μM Gly-Pro-AMC. After incubation of assay plates at 30° C. for 30 min, the hydrolysis of Gly-Pro-AMC was monitored in a fluorescence microplate reader (Molecular Devices SpectraMax M5), with excitation and emission wavelengths set at 360 nm and 460 nm, respectively.
The inhibition of DPP-IV activity by test compounds was routinely performed by preincubating the enzyme with test compound (10 and 100 nM for primary screening and 8 concentrations from 0.1 to 1000 nM for the dose-response study) or vehicle (0.01% DMSO) for 15 min at 30° C., in a total volume of 90 μl. Test compounds were dissolved in DMSO at a concentration of 10 mM and serially diluted further in assay buffer. The enzyme reaction was initiated by the addition of Gly-Pro-AMC, followed by incubation of assay plates for 30 min at 30° C. and the liberated AMC was measured as described above. A known inhibitor of DPP-IV (positive control) was always included in the assay. Test compounds at various concentrations were always evaluated in duplicate, along with substrate blanks, vehicle controls and positive controls.
The results are expressed as percent inhibition of the enzyme activity relative to vehicle controls. Dose-response studies were conducted for those compounds exerting ≧50% inhibition of activity at 10 nM in primary screening. IC50, defined as the inhibitor concentration which caused a 50% decrease of the activity under assay conditions, was computed using GraphPad Prism software, version 5.0. […]

plasma DPP-IV = target: T2, plasma DPP-IV (Canis lupus familiaris, UniProt A0A8I3Q2I8); assay: Measurement of plasma DPP-IV activity in Beagle dogs; format: in vivo; details: dog, male Beagle dogs, single oral dose 3 mg/kg p.o.
T2 construct: from tissue; host or cells: EDTA-plasma of male Beagle dogs after oral dosing (ex vivo)
Protocol: A. Measurement of Plasma DPP-IV Activity in Beagle Dogs
Overnight-fasted male animals were administered either vehicle or single oral dose of compound. Blood samples were collected prior to dosing and for 12 hours post dose into tubes containing EDTA. EDTA-plasma was separated and DPP-IV activity was measured using a fluorometric assay. Assays were carried out in 96-well flat-bottom black microwell plates. A typical reaction contained 25 μl plasma, 50 μl of 50 μM substrate (Gly-Pro-AMC) and 25 μl assay buffer (25 mM Tris-HCl, pH 7.4, 140 mM NaCl, 10 mM KCl and 1% BSA) in a total reaction volume of 100 μl. Plasma samples were incubated with the substrate for 30 min at 30° C., following which the fluorescence was measured in a microplate fluorescence reader (POLARstar Galaxy), with excitation and emission wavelengths set at 360 nm and 460 nm, respectively. Percent inhibition in plasma DPP-IV activity due to compounds was calculated by comparing with plasma from vehicle-treated animals.

T2 sequence (A0A8I3Q2I8 1-765): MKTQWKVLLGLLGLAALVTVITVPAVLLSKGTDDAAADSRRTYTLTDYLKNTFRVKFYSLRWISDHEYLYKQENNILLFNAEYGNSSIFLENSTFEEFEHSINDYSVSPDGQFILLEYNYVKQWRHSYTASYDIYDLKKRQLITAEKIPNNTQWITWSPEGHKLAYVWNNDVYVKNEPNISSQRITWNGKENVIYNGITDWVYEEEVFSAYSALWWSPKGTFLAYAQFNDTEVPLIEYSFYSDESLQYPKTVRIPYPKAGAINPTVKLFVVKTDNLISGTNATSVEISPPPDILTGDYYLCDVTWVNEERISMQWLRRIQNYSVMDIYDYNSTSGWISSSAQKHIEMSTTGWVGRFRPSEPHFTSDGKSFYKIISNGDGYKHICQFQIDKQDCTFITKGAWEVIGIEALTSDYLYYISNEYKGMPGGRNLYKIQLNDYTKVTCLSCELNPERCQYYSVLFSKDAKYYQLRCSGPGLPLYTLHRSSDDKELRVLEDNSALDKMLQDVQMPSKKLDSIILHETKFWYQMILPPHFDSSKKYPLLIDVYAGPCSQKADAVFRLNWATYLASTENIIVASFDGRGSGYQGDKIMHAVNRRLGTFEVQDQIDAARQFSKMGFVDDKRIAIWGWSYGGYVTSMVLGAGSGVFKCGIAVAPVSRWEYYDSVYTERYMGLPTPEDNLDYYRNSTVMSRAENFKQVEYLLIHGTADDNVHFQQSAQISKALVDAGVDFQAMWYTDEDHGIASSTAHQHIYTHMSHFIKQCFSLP
T1 sequence (P27487 whole entry): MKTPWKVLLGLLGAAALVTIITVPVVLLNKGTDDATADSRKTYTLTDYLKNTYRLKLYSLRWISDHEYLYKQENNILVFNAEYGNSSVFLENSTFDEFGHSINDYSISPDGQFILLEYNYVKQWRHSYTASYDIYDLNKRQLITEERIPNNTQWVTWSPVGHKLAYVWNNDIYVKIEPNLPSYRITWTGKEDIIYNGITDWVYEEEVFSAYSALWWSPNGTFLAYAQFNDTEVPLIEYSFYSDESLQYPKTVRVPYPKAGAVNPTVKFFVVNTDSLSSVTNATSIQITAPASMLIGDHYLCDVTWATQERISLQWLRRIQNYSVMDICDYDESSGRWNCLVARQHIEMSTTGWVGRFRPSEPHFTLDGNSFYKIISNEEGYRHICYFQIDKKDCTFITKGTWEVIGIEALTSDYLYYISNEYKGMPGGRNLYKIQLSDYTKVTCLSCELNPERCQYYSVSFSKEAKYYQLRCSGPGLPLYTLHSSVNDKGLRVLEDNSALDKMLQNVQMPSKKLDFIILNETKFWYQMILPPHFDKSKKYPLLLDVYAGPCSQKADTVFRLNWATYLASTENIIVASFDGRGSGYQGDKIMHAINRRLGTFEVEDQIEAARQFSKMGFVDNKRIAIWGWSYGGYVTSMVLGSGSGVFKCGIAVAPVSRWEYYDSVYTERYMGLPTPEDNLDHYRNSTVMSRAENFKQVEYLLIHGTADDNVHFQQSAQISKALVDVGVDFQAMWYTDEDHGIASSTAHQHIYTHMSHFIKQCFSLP

`CN(C)C(=O)N1C2CCC1CC([C@H](N)C(=O)N1[C@H](C#N)C[C@@H]3C[C@@H]31)C2` (stereo partly drawn) (as salt: salt) [Compound 1, (1S,3S,5S)-2-{(2S)-2-Amino-2-[8-(dimethylcarbamoyl)-8-aza-bicyclo[3.2.1]-oct-3-yl]-exo-ethanoyl}-2-azabicyclo[3.1.0]-hexane-3-carbonitrile trifluoro acetic acid salt] showed a melting point of 178 to 180 °C.

Work on `C#C[C@H]1CC[C@@H](C#N)N1C(=O)[C@@H](N)C1CC2CCC(C1)N2C(=O)N(C)C` (stereo partly drawn) (as salt: salt) [Compound 2, (2S,5R)-1-{(2S)-2-Amino-2-[8-(dimethylcarbamoyl)-8-aza-bicyclo[3.2.1]oct-3-yl]-exo-ethanoyl}-5-ethynyl-pyrrolidin-2-carbonitrile trifluoro acetic acid salt] yielded a melting point of 165 to 167 °C.

Work on `CN(C)C(=O)N1C2CCC1CC([C@H](N)C(=O)N1[C@H](C#N)C[C@@H]3C[C@@H]31)C2` (stereo partly drawn) [Compound 1, (1S,3S,5S)-2-{(2S)-2-Amino-2-[8-(dimethylcarbamoyl)-8-aza-bicyclo[3.2.1]-oct-3-yl]-exo-ethanoyl}-2-azabicyclo[3.1.0]-hexane-3-carbonitrile trifluoro acetic acid salt] yielded an inhibition at 0.01 µM (human recombinant DPP-IV; compound at 10 nM (primary screening)) of 69% and an inhibition at 0.1 µM (human recombinant DPP-IV; compound at 100 nM (primary screening)) of 94.8%.

Compound `C#C[C@H]1CC[C@@H](C#N)N1C(=O)[C@@H](N)C1CC2CCC(C1)N2C(=O)N(C)C` (stereo partly drawn) [Compound 2, (2S,5R)-1-{(2S)-2-Amino-2-[8-(dimethylcarbamoyl)-8-aza-bicyclo[3.2.1]oct-3-yl]-exo-ethanoyl}-5-ethynyl-pyrrolidin-2-carbonitrile trifluoro acetic acid salt] has an IC50 (human recombinant DPP-IV; 50 μM Gly-Pro-AMC, 15 min preincubation, 30 min at 30° C.) of 3.3 nM, an inhibition at 3 mg/kg (plasma DPP-IV; 0.5 h post dose, read-out: Plasma DPP-IV Inhibition (%) 0.5 h) of 91% and an inhibition at 3 mg/kg (plasma DPP-IV; 1 h post dose, read-out: Plasma DPP-IV Inhibition (%) 1 h) of 85%. It also gave an inhibition at 3 mg/kg (plasma DPP-IV; 2 h post dose, read-out: Plasma DPP-IV Inhibition (%) 2 h) of 92%, an inhibition at 3 mg/kg (plasma DPP-IV; 3 h post dose, read-out: Plasma DPP-IV Inhibition (%) 3 h) of 90% and an inhibition at 3 mg/kg (plasma DPP-IV; 4 h post dose, read-out: Plasma DPP-IV Inhibition (%) 4 h) of 85%. It also gave an inhibition at 3 mg/kg (plasma DPP-IV; 6 h post dose, read-out: Plasma DPP-IV Inhibition (%) 6 h) of 72%, an inhibition at 3 mg/kg (plasma DPP-IV; 8 h post dose, read-out: Plasma DPP-IV Inhibition (%) 8 h) of 68% and an inhibition at 3 mg/kg (plasma DPP-IV; 10 h post dose, read-out: Plasma DPP-IV Inhibition (%) 10 h) of 67%. It also gave an inhibition at 3 mg/kg (plasma DPP-IV; 12 h post dose, read-out: Plasma DPP-IV Inhibition (%) 12 h) of 62%.
